Patent publication US20050239832A1, “Methods of treatment of amyloidosis using bi-cyclic aspartyl protease inhibitors” (priority 2004, published 2005)

Experiments:
A-beta = experiment: Efficacy of compounds to inhibit A-beta concentration (% inhibition vs vehicle control); type: in vivo, rat
Description: Efficacious compounds of the present invention are those able to decrease the amount of A-beta produced compared to a control, where beta-secretase mediated cleavage is observed and measured in the absence of the compounds. Detection of efficacy can be by analysis of A-beta levels, for example, by immunoassay, fluorometric or chromogenic assay, HPLC, or other means of detection. The efficacy of the compounds of formula (I) was determined as a percentage inhibition corresponding to A-beta concentrations for tissue treated and untreated with a compound of formula (I).
The invention encompasses compounds of formula (I) that are efficacious. Efficacy is calculated as a percentage of concentrations as follows: Efficacy=(1−(total A-beta in dose group/total A-beta in vehicle control))*100% wherein the “total A-beta in dose group” equals the concentration of A-beta in the tissue, (e.g., rat brain) treated with the compound, and the “total A-beta in vehicle control” equals the concentration of A-beta in the tissue, yielding a % inhibition of A-beta production. Statistical significance is determined by p-value<0.05 using the Mann Whitney t-test. See, for example, Dovey et al., J. Neurochemistry, 2001, 76:173-181. […]

[1] = test system: HEKp293 cells transfected with APP751 containing the Swedish mutation (A-beta); experiment: cells; type: cell-based; conditions: Homo sapiens, read-out: Cell EC50 (nM)
Source text: An exemplary assay for the analysis of inhibition of beta-secretase activity utilizes the human embryonic kidney cell line HEKp293 (ATCC Accession No. CRL-1573) transfected with APP751 containing the naturally occurring double mutation Lys651Met652 to Asn651Leu652 (numbered for APP751), commonly called the Swedish mutation and shown to overproduce A-beta (Citron et al., 1992, Nature, 360:672-674), as described in U.S. Pat. No. 5,604,102.
At the end of the treatment period, conditioned media is analyzed for beta-secretase activity, for example, by analysis of cleavage fragments. A-beta can be analyzed by immunoassay, using specific detection antibodies.

[2] = Oral bioavailability in the male Sprague-Dawley rat (IV and PO); type: in vivo; conditions: plasma, 10 mg/kg
Description: The invention encompasses compounds of formula (I) that are orally bioavailable. Generally, oral bioavailability is defined as the fraction of orally administered dose reaching systemic circulation. Oral bioavailability can be determined following both an intravenous (IV) and oral (PO) administration of a test compound.
Oral bioavailability was determined in the male Sprague-Dawley rat following both IV and PO administration of test compound. Two month-old male rats (250-300 g) were surgically implanted with polyethylene (PE-50) cannula in the jugular vein while under isoflurane anesthesia the day before the in-life phase. Animals were fasted overnight with water ad libitum, then dosed the next day. The dosing regime. consisted of either a 5 mg/kg (2.5 mL/kg) IV dose (N=3) administered to the jugular vein cannula, then flushed with saline, or a 10 mg/kg (5 mL/kg) PO dose (N=3) by esophageal gavage. Compounds were formulated with 10% Solutol in 5% dextrose at 2 mg/mL. Subsequent to dosing, blood was collected at 0.016 (IV only), 0.083, 0.25, 0.5, 1, 3, 6, 9, and 24 h post administration, and heparinized plasma was recovered following centrifugation.
Compounds were extracted from samples following precipitation of the plasma proteins by methanol. The resulting supernatants were evaporated to dryness and reconstituted with chromatographic mobile phase (35% acetonitrile in 0.1% formic acid) and injected onto a reverse phase C18 column (2×50 mm, 5 μm, BDS Hypersil). Detection was facilitated with a multi-reaction-monitoring experiment on a tandem triple quadrupole mass spectrometer (LC/MS/MS) following electrospray ionization. Experimental samples were compared to calibration curves prepared in parallel with aged match rat plasma and quantitated with a weighted 1/x linear regression. The lower limit of quantization (LOQ) for the assay was typically 0.5 ng/mL.
Oral bioavailability (% F) is calculated from the dose normalized ratio of plasma exposure following oral administration to the intravenous plasma exposure in the rat by the following equation % F=(AUCpo/AUCiv)×(Div/Dpo)×100% where D is the dose and AUC is the area-under-the-plasma-concentration-time-curve from 0 to 24 h. AUC is calculated from the linear trapezoidal rule by AUC=((C2+C1)/2)×(T2−T1) where C is concentration and T is time.
Pharmacokinetic parameters were calculated by a non-compartmental approach. See, for example, Gibaldi, M. and Perrier, D., Pharmacokinetics, Second Edition, 1982, Marcel Dekker Inc., New York, N.Y., pp 409-418.

BACE = BACE (Homo sapiens, UniProt P56817); experiment: BACE EC50 (enzyme inhibition, Table on oral bioavailability); type: biochemical
Chain of BACE (P56817 46-501): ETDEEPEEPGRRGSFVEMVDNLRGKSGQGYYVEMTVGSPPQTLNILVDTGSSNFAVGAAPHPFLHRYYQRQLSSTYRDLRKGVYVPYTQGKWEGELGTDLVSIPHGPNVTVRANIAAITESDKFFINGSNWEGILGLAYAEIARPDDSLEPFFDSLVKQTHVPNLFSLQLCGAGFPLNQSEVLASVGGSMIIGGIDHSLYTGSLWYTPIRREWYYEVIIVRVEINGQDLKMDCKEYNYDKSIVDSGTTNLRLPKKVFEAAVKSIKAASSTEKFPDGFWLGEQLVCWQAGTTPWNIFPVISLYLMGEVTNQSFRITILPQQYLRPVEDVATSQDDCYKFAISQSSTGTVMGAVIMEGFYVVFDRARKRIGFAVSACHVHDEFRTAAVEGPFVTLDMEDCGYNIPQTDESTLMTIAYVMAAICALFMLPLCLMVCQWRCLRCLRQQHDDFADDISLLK

[3] = test system: catD versus beta-secretase (BACE); experiment: Selectivity for inhibiting BACE over aspartyl protease catD (ratio of IC50 values); type: biochemical; conditions: average of four experimental runs
Description: Investigation of potential beta-secretase inhibitors produced compounds with increased selectivity for beta-secretase over other aspartyl proteases such as cathepsin D (catD), cathepsin E (catE), HIV protease, and renin. Selectivity was calculated as a ratio of inhibition (IC50) values in which the inhibition of beta-secretase was compared to the inhibition of other aspartyl proteases. […] Alternatively, a compound is selective when its binding affinity is greater for its desired target (e.g., beta-secretase) versus a secondary target (e.g., catD). Accordingly, methods of treatment include administering selective compounds of formula (I) having a lower IC50 value for inhibiting beta-secretase, or greater binding affinity for beta-secretase, than for other aspartyl proteases such as catD, catE, HIV protease, or renin. A selective compound is also capable of producing a higher ratio of desired effects to adverse effects, resulting in a safer method of treatment.
The compounds of formula (I) can be selective for beta-secretase versus catD. […] Selectivity is reported as the ratio of IC50(catD):IC50(BACE).
In the following examples, each value is an average of four experimental runs and multiple values for one compound indicate that more than one experiment was conducted.

in vivo = conditions: CF-1, mouse, iv
Description: The following assay was employed to determine the brain penetration of compounds encompassed by the present invention.
In-life phase: Test compounds were administered to CF-1 (20-30 g) mice at 10 μmol/kg (4 to 7 mg/kg) following IV administration in the tail vein. Two time-points, 5 and 60 min, were collected post dose. Four mice were harvested for heparinized plasma and non-perfused brains at each time-point for a total of 8 mice per compound.
Analytical phase: Samples were extracted and evaporated to dryness, then reconstituted and injected onto a reverse phase chromatographic column while monitoring the effluent with a triple quadrupole mass spectrometer. Quantitation was then performed with a 1/x^2 weighted fit of the least-squares regression from calibration standards prepared in parallel with the in vivo samples. The LOQ is generally 1 ng/mL and 0.5 ng/g for the plasma and brain respectively. Data was reported in micromolar (μM) units. Brain levels were corrected for plasma volumes (16 μL/g).

[4] = 100 mg/kg, cortex, inhibition of total A-beta vs vehicle control
[5] = 100 mg/kg, plasma, inhibition of total A-beta vs vehicle control

| Structure (SMILES) | Efficacy (% Inhibition, 100 mg/kg) cortex (A-beta; [4]) [%] | Efficacy (% Inhibition, 100 mg/kg) plasma (A-beta; [5]) [%] | bioavailability [2] [%] | EC50 (BACE) [nM] | also measured |
| --- | --- | --- | --- | --- | --- |
| CCc1cc(CC(C)(C)C)cc2c1CCCC2NCC(O)C(Cc1cc(F)cc(F)c1)NC(C)=O (single isomer, unassigned) [91.2 Diastereomer A] | 44 | 57 |  |  |  |
| CC(=O)NC(Cc1cc(F)cc(F)c1)C(O)CNC1CCNc2ccc(CC(C)(C)C)cc21 (single isomer, unassigned) [91.4 Diastereomer B] | 18 | 59 |  |  |  |
| CCc1ccc2c(c1)C(NCC(O)C(Cc1cc(F)cc(F)c1)NC(C)=O)CCC2 (single isomer, unassigned) [91.5 Diastereomer A] | 35 | 44 |  |  |  |
| CCc1cc(CC(C)(C)C)cc2c1CCCC2NCC(O)C(Cc1cc(F)cc(F)c1)NC(C)=O (single isomer, unassigned) [91.8 Diastereomer A] |  |  | 23.3 | 12 | EC50 [1]: 32 nM |
| CC(=O)NC(Cc1cc(F)cc(F)c1)C(O)CNC1CCNc2ccc(CC(C)(C)C)cc21 (single isomer, unassigned) [91.10 Diastereomer B] |  |  | 5 | 190 | EC50 [1]: 13 nM |
| CC(=O)NC(Cc1cc(F)cc(F)c1)C(O)CNC1CCCc2ccc(CC(C)(C)C)cc21 (stereo not drawn) [Example 91.1, N-{1-(3,5-Difluoro-benzyl)-3-[7-(2,2-dimethyl-propyl)-1,2,3,4-tetrahydro-naphthalen-1-ylamino]-2-hydroxy-propyl}-acetamide] |  |  | 15 | 9 | Efficacy (% Inhibition, 100 mg/kg) cortex (A-beta; rat, in vivo): 47%; Efficacy (% Inhibition, 100 mg/kg) plasma (A-beta; rat, in vivo): 63% |
| CC(C)(C)Cc1ccc2c(c1)C(NCC(O)C(Cc1cc(F)cc(F)c1)NC(=O)CF)CCC2 (stereo not drawn) [Example 91.3, N-{1-(3,5-Difluoro-benzyl)-3-[7-(2,2-dimethyl-propyl)-1,2,3,4-tetrahydro-naphthalen-1-ylamino]-2-hydroxy-propyl}-2-fluoro-acetamide] | 14 | 23 |  |  |  |
| CC(=O)NC(Cc1cc(F)cc(F)c1)C(O)CNC1c2cc(CC(C)(C)C)ccc2CCC1CO (stereo not drawn) [Example 91.6, N-{1-(3,5-Difluoro-benzyl)-3-[7-(2,2-dimethyl-propyl)-2-hydroxymethyl-1,2,3,4-tetrahydro-naphthalen-1-ylamino]-2-hydroxy-propyl}-acetamide] |  |  |  |  | Selectivity IC50 catD/ IC50 BACE [3]: 4.4 |
| CCc1ccc2c(c1)C(NCC(O)C(Cc1cc(F)cc(F)c1)NC(C)=O)CCN2 (stereo not drawn) [Example 91.7, N-[1-(3,5-Difluoro-benzyl)-3-(6-ethyl-1,2,3,4-tetrahydro-quinolin-4-ylamino)-2-hydroxy-propyl]-acetamide] |  |  |  |  | Selectivity IC50 catD/ IC50 BACE [3]: 2.1 |
| CCc1ccc2c(c1)C(NCC(O)C(Cc1cc(F)cc(F)c1)NC(C)=O)CCC2 (stereo not drawn) [Example 91.11, N-[1-(3,5-Difluoro-benzyl)-3-(7-ethyl-1,2,3,4-tetrahydro-naphthalen-1-ylamino)-2-hydroxy-propyl]-acetamide] |  |  | 14.3 | 210 |  |
| CC(C)(C)NC(=O)[C@@H]1CN(Cc2cccnc2)CCN1C[C@@H](O)C[C@@H](Cc1ccccc1)C(=O)N[C@H]1c2ccccc2C[C@H]1O [Indinavir] |  |  |  |  | concentration at 5 min (in vivo): 165 nM; concentration at 60 min (in vivo): 11 nM |
